Six molecules from patent US6486191B2 (priority 1997, dated 2002) can be followed below.

Each structure is given as a SMILES string. ≈ marks a conversion by molar mass, not a printed value.

Assay [1] concerns Aspergillus niger. Description: Material protection test (MIC on malt extract agar). Particulars: 336 h, two weeks at 27° C., 60 to 70% relative humidity, read-out: Minimum inhibitory concentration (MIC value). The assay is classed as cell-based.
Assay [2] deals with Penicillium brevicaule. Described as above. The assay is classed as cell-based. The conditions noted are these: 336 h, two weeks at 27° C., 60 to 70% relative humidity, read-out: Minimum inhibitory concentration (MIC value).
In assay [3] the test system is Chaetomium globosum. The assay is described as above. The conditions noted are these: 336 h, two weeks at 27° C., 60 to 70% relative humidity, read-out: Minimum inhibitory concentration (MIC value). The assay is classed as cell-based.
Assay [4] relates to larvae of the horseradish beetle (Phaedon cochleariae). Description: Phaedon larvae test. Particulars: cabbage leaves immersed, active substance concentration 0.1 % by weight. The class given is in vivo. On the procedure: (§1) Solvent: 7 parts by weight of dimethylformamide
(§2) Emulsifier: 1 part by weight of alkylaryl polyglycol ether
For the preparation of an expedient fonnulation of active substance, 1 part by weight of active substance is mixed with the stated amounts of solvent and emulsifier, and the concentrate is diluted to the desired concentration with water.
Cabbage leaves (Brassica oleracea) are treated by immersion in the formulation of active substance of the desired concentration and infested with larvae of the horseradish beetle (Phaedon cochleariae) as long as the leaves are still moist.
After the desired time, the kill in % is determined. 100% means that all beetle larvae were killed; 0% means that no beetle larvae were killed.

Assay [5] concerns caterpillars of the diamondback moth (Plutella xylostella). Description: Plutella test. The assay is classed as in vivo. The conditions noted are these: cabbage leaves immersed, active substance concentration 0.1 % by weight. The protocol:
as §1, §2
For the preparation of an expedient formulation of active substance, 1 part by weight of active substance is mixed with the stated amounts of solvent and emulsifier, and the concentrate is diluted to the desired concentration with water.
Cabbage leaves (Brassica oleracea) are treated by immersion in the formulation of active substance of the desired concentration and infested with caterpillars of the diamondback moth (Plutella xylostella) as long as the leaves are still moist.
After the desired time, the kill in % is determined. 100% means that all caterpillars were killed; 0% means that no caterpillars were killed.

As for `Cc1ccc(S(=O)(=O)n2c(C#N)nc3cc4c(cc32)OC(F)(F)C(F)(F)O4)cc1[N+](=O)[O-]` [Example 2], the figures for the MIC in assay [1], in assay [2] and in assay [3] were 200 µg/mL (≈ 423 µM), 100 µg/mL (≈ 212 µM) and 100 µg/mL (≈ 212 µM), respectively.

With `Cc1ccc([N+](=O)[O-])cc1S(=O)(=O)n1c(C#N)nc2cc3c(cc21)OC(F)(F)C(F)(F)O3` [Example 5], the results for the MIC in assay [1], in assay [2] and in assay [3] were 200 µg/mL (≈ 423 µM), 100 µg/mL (≈ 212 µM) and 100 µg/mL (≈ 212 µM), respectively.

Regarding `Cc1ccc(S(=O)(=O)n2c(C#N)nc3cc4c(cc32)OC(F)(F)C(F)(F)O4)cc1[N+](=O)[O-]` [drawing 67], the “Kill in % after 7 d” value in assay [4] is listed as 100%.

On to `Cc1ccc([N+](=O)[O-])cc1S(=O)(=O)n1c(C#N)nc2cc3c(cc21)OC(F)(F)C(F)(F)O3` [drawing 68], for which the “Kill in % after 7 d” value in assay [4] is on record as 100%.

For the molecule `Cc1ccc(S(=O)(=O)n2c(C#N)nc3cc4c(cc32)OC(F)(F)C(F)(F)O4)cc1[N+](=O)[O-]` [drawing 69], the “Kill in % after 7 d” value in assay [5] turned out to be 100%.

`Cc1ccc([N+](=O)[O-])cc1S(=O)(=O)n1c(C#N)nc2cc3c(cc21)OC(F)(F)C(F)(F)O3` [drawing 70]: in assay [5], the “Kill in % after 7 d” value amounted to 100%.
